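Exposure lasted 48 hours, with cells grown in 96-well plates and compounds tested at five concentrations. Definition used: TGI = concentration required for complete inhibition of growth.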
How the values were obtained:
Assay in all cases: NCI anticancer screen, dose series, 48 h
[1] = system: NCI-H226 lung
[2] = system: SR leukemia
[3] = system: HCC-2998 colon
[4] = system: PC-3 prostate
[5] = system: SK-MEL-28 melanoma
[6] = system: RPMI-8226 leukemia
[7] = system: HCT-116 colon
[8] = system: UACC-257 melanoma
[9] = system: MCF7 breast
[10] = system: KM12 colon
[11] = system: ACHN renal
[12] = system: NCI/ADR-RES ovarian
[13] = system: NCI-H460 lung
[14] = system: OVCAR-5 ovarian
[15] = system: SNB-75 CNS
[16] = system: HOP-62 NSCLC
[17] = system: SK-MEL-5 melanoma
[18] = system: COLO 205 colon
[19] = system: MDA-MB-435
[20] = system: OVCAR-3 ovarian
[21] = system: SN12C renal
[22] = system: A498 renal
[23] = system: OVCAR-8 ovarian
[24] = system: HS 578T breast
[25] = system: HL-60(TB) leukemia
[26] = system: TK-10 renal
[27] = system: MOLT-4 leukemia
[28] = system: CCRF-CEM leukemia
[29] = system: BT-549 breast
[30] = system: HOP-92 NSCLC
[31] = system: SNB-19 CNS
[32] = system: A549 NSCLC
[33] = system: IGROV1 ovarian
[34] = system: 786-0 renal
[35] = system: DU-145 prostate
[36] = system: NCI-H23 lung
[37] = system: SF-539 CNS
[38] = system: SK-OV-3 ovarian
[39] = system: MALME-3M melanoma
[40] = system: K-562 leukemia
[41] = system: SF-268 CNS
[42] = system: UO-31 renal
[43] = system: U251 CNS
[44] = system: HCT-15 colon
[45] = system: SF-295 CNS
[46] = system: MDA-N
[47] = system: SW-620 colon
[48] = system: UACC-62 melanoma
[49] = system: EKVX NSCLC
[50] = system: RXF 393 renal
[51] = system: M14 melanoma
[52] = system: HT29 colon
[53] = system: LOX IMVI melanoma
[54] = system: SK-MEL-2 melanoma
[55] = system: NCI-H522 lung
[56] = system: MDA-MB-231 breast
[57] = system: T-47D breast
[58] = system: CAKI-1 renal
[59] = system: OVCAR-4 ovarian

COC(=O)c1csc(-c2csc(CCNC(=O)OC(C)(C)C)n2)n1 gave a TGI [1] of over 100 µM, a TGI [2] of over 100 µM and a TGI [3] of over 100 µM. For the same compound, the TGI [4] was over 100 µM, the TGI [5] was over 100 µM and the TGI [6] was over 100 µM. It also gave a TGI [7] of over 100 µM, a TGI [8] of over 100 µM and a TGI [9] of over 100 µM. It also gave a TGI [10] of over 100 µM, a TGI [11] of over 100 µM and a TGI [12] of over 100 µM. The TGI [13] was over 100 µM, the TGI [14] was over 100 µM and the TGI [15] was over 100 µM. It also gave a TGI [16] of over 100 µM, a TGI [17] of over 100 µM and a TGI [18] of over 100 µM. For the same compound, the TGI [19] was over 100 µM, the TGI [20] was over 100 µM and the TGI [21] was over 100 µM. For the same compound, the TGI [22] was 99 µM, the TGI [23] was over 100 µM and the TGI [24] was over 100 µM. The TGI [25] was over 100 µM, the TGI [26] was over 100 µM and the TGI [27] was over 100 µM. For the same compound, the TGI [28] was over 100 µM, the TGI [29] was over 100 µM and the TGI [30] was over 100 µM. It also gave a TGI [31] of over 100 µM, a TGI [32] of over 100 µM and a TGI [33] of over 100 µM. The TGI [34] was over 100 µM, the TGI [35] was over 100 µM and the TGI [36] was over 100 µM. The TGI [37] was over 100 µM, the TGI [38] was over 100 µM and the TGI [39] was over 100 µM. The TGI [40] was over 100 µM, the TGI [41] was over 100 µM and the TGI [42] was over 100 µM. For the same compound, the TGI [43] was over 100 µM, the TGI [44] was over 100 µM and the TGI [45] was over 100 µM. For the same compound, the TGI [46] was over 100 µM, the TGI [47] was over 100 µM and the TGI [48] was over 100 µM. The TGI [49] was over 100 µM, the TGI [50] was over 100 µM and the TGI [51] was over 100 µM. The TGI [52] was over 100 µM.
For O=C(NC(=S)Nc1ccc(Br)cc1)c1ccc2c(c1)Sc1ccccc1O2, the TGI [1] was over 100 µM, the TGI [2] was over 100 µM and the TGI [4] was over 100 µM. It also gave a TGI [5] of over 100 µM, a TGI [7] of over 100 µM and a TGI [8] of over 100 µM. The TGI [53] was over 100 µM, the TGI [9] was over 100 µM and the TGI [10] was over 100 µM. The TGI [11] was over 100 µM, the TGI [12] was over 100 µM and the TGI [54] was over 100 µM. It also gave a TGI [13] of over 100 µM, a TGI [14] of over 100 µM and a TGI [55] of over 100 µM. For the same compound, the TGI [15] was 19.3 µM, the TGI [16] was over 100 µM and the TGI [17] was over 100 µM. For the same compound, the TGI [18] was over 100 µM, the TGI [19] was over 100 µM and the TGI [20] was over 100 µM. For the same compound, the TGI [21] was over 100 µM, the TGI [22] was 66.5 µM and the TGI [23] was over 100 µM. For the same compound, the TGI [24] was over 100 µM, the TGI [25] was over 100 µM and the TGI [26] was over 100 µM. It also gave a TGI [27] of over 100 µM, a TGI [28] of over 100 µM and a TGI [29] of over 100 µM. For the same compound, the TGI [30] was 74.9 µM, the TGI [31] was over 100 µM and the TGI [32] was over 100 µM. The TGI [33] was over 100 µM, the TGI [34] was over 100 µM and the TGI [35] was over 100 µM. It also gave a TGI [36] of over 100 µM, a TGI [37] of over 100 µM and a TGI [38] of over 100 µM. The TGI [39] was over 100 µM, the TGI [40] was over 100 µM and the TGI [41] was over 100 µM. It also gave a TGI [42] of over 100 µM, a TGI [43] of over 100 µM and a TGI [44] of over 100 µM. For the same compound, the TGI [45] was over 100 µM, the TGI [46] was over 100 µM and the TGI [47] was over 100 µM. The TGI [56] was over 100 µM, the TGI [57] was over 100 µM and the TGI [48] was over 100 µM. The TGI [51] was over 100 µM and the TGI [52] was over 100 µM.
For COc1cc(/C=C2\C(=O)N(c3cccc(NC(C)=O)c3)C(c3ccccc3)S2(=O)=O)cc(OC)c1OC (configuration not stated), the TGI [1] was over 100 µM, the TGI [2] was over 100 µM and the TGI [58] was over 100 µM. It also gave a TGI [3] of over 100 µM, a TGI [4] of over 100 µM and a TGI [5] of over 100 µM. The TGI [6] was over 100 µM, the TGI [7] was over 100 µM and the TGI [8] was over 100 µM. For the same compound, the TGI [53] was over 100 µM, the TGI [9] was over 100 µM and the TGI [10] was over 100 µM. The TGI [11] was over 100 µM, the TGI [12] was over 100 µM and the TGI [54] was over 100 µM. It also gave a TGI [13] of over 100 µM, a TGI [14] of over 100 µM and a TGI [55] of over 100 µM. The TGI [15] was over 100 µM, the TGI [16] was over 100 µM and the TGI [17] was over 100 µM. For the same compound, the TGI [18] was over 100 µM, the TGI [19] was over 100 µM and the TGI [20] was over 100 µM. It also gave a TGI [21] of over 100 µM, a TGI [22] of over 100 µM and a TGI [23] of over 100 µM. It also gave a TGI [25] of 44.5 µM, a TGI [26] of over 100 µM and a TGI [27] of 86.3 µM. The TGI [28] was over 100 µM, the TGI [59] was over 100 µM and the TGI [29] was over 100 µM. It also gave a TGI [30] of over 100 µM, a TGI [31] of over 100 µM and a TGI [32] of over 100 µM. It also gave a TGI [33] of over 100 µM, a TGI [34] of over 100 µM and a TGI [35] of over 100 µM. The TGI [36] was over 100 µM, the TGI [37] was over 100 µM and the TGI [38] was over 100 µM. For the same compound, the TGI [39] was over 100 µM, the TGI [40] was over 100 µM and the TGI [42] was over 100 µM. The TGI [43] was over 100 µM, the TGI [44] was over 100 µM and the TGI [45] was over 100 µM. The TGI [46] was over 100 µM, the TGI [47] was over 100 µM and the TGI [56] was over 100 µM. The TGI [57] was over 100 µM, the TGI [48] was over 100 µM and the TGI [49] was over 100 µM. It also gave a TGI [50] of over 100 µM, a TGI [51] of over 100 µM and a TGI [52] of over 100 µM.
For CCOC(=O)/C(C(N)=O)=C(\O)C(=O)/C=C(\O)c1ccc(Cl)cc1, the TGI [1] was 48.8 µM, the TGI [2] was 44.5 µM and the TGI [58] was 64 µM. For the same compound, the TGI [4] was 38.1 µM, the TGI [5] was 63.2 µM and the TGI [6] was 44.8 µM. It also gave a TGI [7] of 28.7 µM, a TGI [8] of 32.2 µM and a TGI [53] of 31 µM. The TGI [9] was 62.4 µM, the TGI [10] was 36.9 µM and the TGI [11] was 39.7 µM. For the same compound, the TGI [12] was 45 µM, the TGI [54] was 34.4 µM and the TGI [13] was 31.5 µM. It also gave a TGI [14] of 54.3 µM, a TGI [55] of 34.3 µM and a TGI [15] of 31 µM. For the same compound, the TGI [16] was 60.7 µM, the TGI [17] was 36.8 µM and the TGI [18] was 32.6 µM. It also gave a TGI [19] of 57.7 µM, a TGI [20] of 66.4 µM and a TGI [21] of 32.2 µM. For the same compound, the TGI [22] was over 100 µM, the TGI [23] was 31.7 µM and the TGI [24] was over 100 µM. The TGI [26] was 26 µM, the TGI [27] was 40.6 µM and the TGI [28] was 24.4 µM. It also gave a TGI [59] of over 100 µM, a TGI [29] of 33.6 µM and a TGI [30] of 53.9 µM. For the same compound, the TGI [31] was over 100 µM, the TGI [32] was over 100 µM and the TGI [33] was 36.2 µM. For the same compound, the TGI [34] was 32.2 µM, the TGI [35] was 35.8 µM and the TGI [36] was 33.6 µM. The TGI [38] was over 100 µM, the TGI [39] was 45.1 µM and the TGI [41] was 59.9 µM. The TGI [42] was 33.4 µM, the TGI [43] was 29.1 µM and the TGI [44] was 34.8 µM. It also gave a TGI [45] of over 100 µM, a TGI [46] of 38.5 µM and a TGI [47] of 50.1 µM. It also gave a TGI [56] of 32.2 µM, a TGI [57] of 47.9 µM and a TGI [48] of 43.1 µM. For the same compound, the TGI [49] was 58.3 µM, the TGI [50] was 32.2 µM and the TGI [51] was 48.3 µM. The TGI [52] was 41.4 µM.

From PubChem BioAssay (NCI)
